The text below walks through data of patent publication US8729134B2, “Aryl di-substituted propenone compounds” (Heartlink Limited, priority 2008, dated 2014).

Series [1] concerns HELA (human cervical carcinoma) cells. As to the kind of experiment: MTT cell viability assay, HELA cells. It counts as cell-based. Particulars: 96 hour incubation, read-out: IC 50, inhibition of HELA cells. On the procedure: (§1) Cell viability was tested using the MTT assay (Amersham). The MTT [3-(4,5-dimethylthiazol-2-yl)-2,5-diphenyltetrazolium bromide] assay, was first described by Mosmann in 1983, (J Immunol Methods. 1983 Dec. 16; 65(1-2):55-63). The assay is based on the ability of a mitochondrial dehydrogenase enzyme from viable cells to cleave the tetrazolium rings of the pale yellow MTT and form a dark blue formazan crystals which is largely impermeable to cell membranes, thus resulting in accumulation within healthy cells. Solubilisation of the cells by the addition of a detergent results in the liberation of the crystals which are then solubilized. The number of surviving cells is directly proportional to the level of the formazan product created. The colour can then be quantified using a simple colorimetric assay. The results can be read on a multi-well scanning spectrophotometer (ELISA reader).
(§2) Cells were plated at predetermined densities in 96 well plates. These were then incubated for 24 hours at 37° C. with 5%; CO2. Growth medium was then removed and replaced with 100 μl of growth medium containing various dilutions of test reagents or appropriate controls.
(§3) Plates were then incubated for a either 48 or 96 hours.
(§4) MTT reagent was then added to each well. The plates were then incubated in a 37° C./5% CO2 incubator. Detergent reagent was then added to each well. […] The absorbance was read at 570 nm. […]
For orientation: Tetrazolium assays rely on reduction of a dye to a coloured formazan, in cell work by metabolically active cells.

In series [2] the test system is JAM (ovarian carcinoma) cells. The experiment in a line: MTT cell viability assay, JAM cells. It counts as cell-based. Particulars: for IC50: Ovarian carcinoma cell, 96 hours incubation, read-out: IC 50, inhibition of JAM cells. On the procedure: as §1, §2, §3
(§5) MTT reagent was then added to each well. The plates were then incubated in a 37° C./5% CO2 incubator. Detergent reagent was then added to each well. The plates were incubated overnight at 37° C./5% CO2. The absorbance was read at 570 nm.
Compound IV was compared with genistein to test the cell viability of JAM (ovarian carcinoma) and HELA (human cervical carcinoma) cell lines.

Series [3] has as its system OVCAR-3 (ovarian adenocarcinoma) cells. As to the kind of experiment: MTT cell viability assay, OVCAR-3 cells. The following applies: Homo sapiens, read-out: IC 50, inhibition in OVCAR-3 cells. It counts as cell-based. On the procedure:
as §1, §2, §3, §5
(§6) Also, Compounds II-IV were compared with genistein to test the cell viability of SK-OV-3 (ovarian adenocarcinoma), OVCAR-3 (ovarian adenocarcinoma), and C-33A (cervical carcinoma) cell lines.

Series [4] has as its system LNCaP cells (human prostate carcinoma). As to the kind of experiment: MTT cell viability assay, LNCaP cells. In kind it is cell-based. The following applies: 48 hours incubation. On the procedure:
as §1, §2, §3, §5
(§7) Compounds II-IV were compared with genistein to test the cell viability of LNCaP, PC3 and DU-145 cell lines (human prostate carcinoma).

For series [5], the system named is SK-MEL-28 (human malignant melanoma) cell line. As to the kind of experiment: MTT cell viability assay, SK-MEL-28 cells. It counts as cell-based. The following applies: read-out: IC 50, inhibition in SK-MEL-28 cells. The procedure: as §1, §2, §3, §5
Compounds II, III and IV were compared with genistein to test the cell viability of SK-MEL-28 (human malignant melanoma) cell line.

A short description of series [6]: Tolerability in the xenograft mouse model. Particulars: doses of 50, 25 and 10 mg/kg intraperitoneally for 14 days. It counts as in vivo. The procedure: (§8) Female athymic mice (54) were implanted subcutaneously in the right hind flank with human DU145 prostate tumour cells (5×10^6). Tumour formation and growth were monitored until the tumours reached an average 25 mm^2 area (5 mm×5 mm). Mice were randomised into groups based upon tumour area (mean tumour area in individual groups ranged from 22 mm^2-33 mm^2). Compositions of Compounds II and III were prepared in a solution of 5% DMSO, 10% Tween 80 in PBS and administered intraperitoneally in a volume of 100 μl at doses of 50, 25, and 10 mg/kg to individual eight week old female Balb/c mice for 14 days. Vehicle control was 5% DMSO, 10% Tween 80 in PBS.

Series [7] has as its system DU-145 cells (human prostate carcinoma). As to the kind of experiment: MTT cell viability assay, DU-145 cells. In kind it is cell-based. The following applies: 48 hours incubation. On the procedure: as §1, §2, §3, §5, §7
Series [8] concerns C-33A (cervical carcinoma) cells. The experiment in a line: MTT cell viability assay, C-33A cells. The following applies: Homo sapiens, 48 hours incubation, read-out: IC 50, inhibition of C-33A cells. In kind it is cell-based. On the procedure: as §1, §2, §3, §5, §6
Series [9] has as its system PC3 cells (human prostate carcinoma). As to the kind of experiment: MTT cell viability assay, PC3 cells. It counts as cell-based. Particulars: PC-3, read-out: IC 50, inhibition in PC3 cells. The procedure: as §1, §2, §3, §5, §7
The subject of series [10] is MCF-7 cells (human, mammary, adenocarcinoma cell line). The experiment in a line: MTT cell viability assay, MCF-7 cells. In kind it is cell-based. Particulars: MCF7, 48 hours incubation, read-out: IC50, inhibition of MCF7 cells. On the procedure:
(§9) Compounds II-IV were compared with genistein to test the cell viability of MCF-7 cells (human, mammary, adenocarcinoma cell line) and MDA-MB-435 cells (human mammary ductal carcinoma).
as §1, §2, §3, §5

Series [11] concerns MDA-MB-435 cells (human mammary ductal carcinoma). As to the kind of experiment: MTT cell viability assay, MDA-MB-435 cells. It counts as cell-based. The following applies: 48 hours incubation, read-out: IC50, inhibition of MDA-MB-435 cell line. On the procedure:
as §9, §1, §2, §3, §5

Series [12] has as its system SK-OV-3 (ovarian adenocarcinoma) cells. The experiment in a line: MTT cell viability assay, SK-OV-3 cells. It counts as cell-based. Particulars: Homo sapiens, read-out: IC 50, inhibition in SK-OV-3 cells. On the procedure:
as §1, §2, §3, §5, §6

Series [13] concerns human DU145 prostate tumour cells (xenograft). As to the kind of experiment: Anti-tumour efficacy in DU145 xenograft mouse model. It counts as in vivo, mice. The procedure: The cell lines were cultured and prepared for inoculation according to standard protocols.
as §8

In series [14] the test system is B16-F1 cells (murine melanoma). As to the kind of experiment: MTT cell viability assay, B16-F1 cells. In kind it is cell-based. The following applies: Mus musculus, 96 hours incubation, read-out: IC 50, inhibition of B16-F1 cells. On the procedure: as §1, §2, §3, §4
The test system of series [15] is AB1 cells (murine myeloma). As to the kind of experiment: MTT cell viability assay, AB1 cells. In kind it is cell-based. Particulars: Mus musculus, 96 hours incubation, read-out: IC 50, inhibition of AB1 cells. On the procedure:
as §1, §2, §3, §4

The mark [16] stands for this setting: read-out: IC 50, inhibition of LNCaP cells.
Setting [17] is: read-out: IC 50, inhibition of DU-145 cells.

In brackets after ≈: the same amount, converted by molar mass. Entries after “also recorded” stand apart in the source; their conditions may differ. Where two headings read alike, the source gives them in different places.

For the compound `COc1ccc(C(=O)Cc2ccc(OC)c(OC)c2)c(OC)c1` [Compound V, 1-(2,4-dimethoxyphenyl)-2-(3,4-dimethoxyphenyl)ethanone], the IC50 in series [1] was determined as 3 µg/mL (≈ 9.48 µM); in [2], 0.9 µg/mL (≈ 2.84 µM).

As to `C=C(C(=O)c1cc(OC)c(OC)cc1OC)c1ccc(OC)c(OC)c1` [Compound III, 1-(2,4,5-trimethoxyphenyl)-2-(3,4-dimethoxyphenyl)prop-2-en-1-one], the IC50 came to 11.7 µM in series [3]; 5 µM in series [4] (setting [16]); 5.5 µM in series [5]; 15 µM in series [7] (setting [17]); 3.1 µM in [8]; 8.6 µM in [9]. Also, the results for the IC50 in series [10], in series [11] and in [12] were 3 µM, 3.8 µM and 33.1 µM, respectively. Further, the “tolerability / toxicity in the animals” value in series [6] was “neither compound resulted in unacceptable toxicity”.

Consider `C=C(C(=O)c1ccc(OC)c(OC)c1OC)c1ccc(OC)cc1` [Compound II, 1-(2,3,4-trimethoxyphenyl)-2-(4-methoxyphenyl)prop-2-en-1-one], for which the IC50 stood at 3.3 µM in series [3]; 2.3 µM in series [4] (setting [16]); 3.5 µM in series [5]; 4.8 µM in series [7] (setting [17]); 1.8 µM in [8]; 2.7 µM in series [9]. The IC50 was determined as 2.2 µM in series [10], 0.6 µM in series [11] and 21.5 µM in [12]. In addition, in series [6], the “tolerability / toxicity in the animals” value was “better tolerated by the animals than Compound III; also recorded: neither compound resulted in unacceptable toxicity”. The “reduction mean tumour growth relative to the control group” value in series [13] (10 mg/kg intraperitoneally for 14 days, at the completion of treatment) is 42%. Moreover, the “statistical significance of tumour growth inhibition” value in series [13] (25 mg/kg and 10 mg/kg treatment groups, t-test P<0.05) is “statistically significant”. Besides, the “tumour growth relative to control animals treated with vehicle alone (in words)” value in series [13] (50, 25, 10 mg/kg intraperitoneally, 14 days) is recorded as “caused delay in the growth of DU-145 tumours; also recorded: clearly inhibited tumour growth”. Moreover, in [13] (DU145 xenograft, 50, 25, 10 mg/kg), the “anti-tumour effect, comparison between Compounds II and III” value is “has the most anti-tumour effect; also recorded: superior anti-tumour effect in comparison with Compound III”. Moreover, the “tumour size following the cessation of treatment” value in [13] (after the 14 day treatment, entire study period) is “tumours remained smaller”.

Take `C=C(C(=O)c1ccc(OC)cc1OC)c1ccc(OC)c(OC)c1` [Compound IV, 1-(2,4-dimethoxyphenyl)-2-(3,4-dimethoxyphenyl)prop-2-en-1-one]: the IC50 stood at 16.9 µM in series [3]; 6.1 µM in series [4] (setting [16]); 3.5 µM in series [5]; 1.6 µg/mL (≈ 4.87 µM) in series [14]; 10.7 µM in [7] (read-out: IC 50, inhibition of DU-145 cells (unit inferred)); 2.4 µM in series [8]. Moreover, the IC50 in series [15] is 1.1 µg/mL (≈ 3.35 µM); in [9], 8.7 µM; in series [10], 6.8 µM; in series [11], 6.8 µM; in [12] it was 27.4 µM. Also, the “cytotoxic potency compared with genistein” value in [2] (JAM and HELA cell lines) was “more potent as a cytotoxic agent than genistein”.

`O=c1c(-c2ccc(O)cc2)coc2cc(O)cc(O)c12` [genistein, reference compound]: the IC50 in [4] (genistein, read-out: IC, inhibition of LNCaP cells) was 59.5 µM; in [14], 4.5 µg/mL (≈ 16.7 µM); in series [7] (setting [17]) it was 78.9 µM; in series [8], 41.9 µM; in [2] it was 9.7 µg/mL (≈ 35.9 µM); in [15] it was 1.1 µg/mL (≈ 4.07 µM). Further, the IC50 in series [10] was 79.4 µM; in series [11], above 100 µM.
